Data set [1] can be described thus: Fluorescence spectra and fluorescence quantum yield in MeOH. The format is physicochemical. As to the method:
The absorption spectra of (oxidopyridyl)porphyrins were recorded in HPLC grade MeOH on a Cary UV 60 (Agilent Technologies, Santa Clara, CA, USA), in a wavelength range of 300–700 nm. The fluorescence spectra in HPLC grade MeOH were recorded on a Cary Eclipse (Agilent Technologies) in a wavelength range of 500–800 nm after excitation at the Soret band wavelength (λ ~ 420 nm). The slits of the spectrometer were set to a bandpass of 5 nm for the excitation and 5 nm for the emission. To calculate the fluorescence quantum yields, the measurements were conducted on an FS5 Edinburgh Instruments spectrometer. Prior to taking the measurements, the solutions were purged with high-purity N2 for at least 15 min. The absorbance of the solutions was set to A < 0.1 at 405 nm and 550 nm, which settings were used for the excitation process. Emission was recorded from 550 to 800 nm, with slits set to the bandpass corresponding to 2 nm for the excitation, and 3 nm for the emission. Fluorescence quantum yield (ΦFL) was calculated in comparison to the tetraphenylporphyrin (TPP; ΦFL = 0.11 [23]) as a standard, according to Equation (S1) and following an equation previously described elsewhere.

Data set [2] concerns MeWo cells. Nature of the data set: Intracellular localisation by fluorescence microscopy with DIOC6(3). The following applies: 5 µM in medium, 6 h. The data set is classed as cell-based, human. As for the experimental part:
In the localisation tests, the cells were incubated with porphyrins and DIO6(3), a marker for mitochondria and endoplasmic reticulum (ER), which was used to investigate the colocalisation of porphyrins with the mentioned organelles. All images were analysed using the ImageJ program, while Pearson’s correlation coefficient was calculated using the CellSense program, fluorescence microscope software produced by Olympus.
To determine any potential preference for the ER and mitochondria, the localisation of (oxidopyridyl)porphyrins substituted with an alkyl chain of 9, 13 and 17 C atoms was observed by fluorescence microscopy incubation with 3,3′-dihexyloxacarbocyanine iodide (DIOC6(3)), a marker that is commonly used to target vesicle membranes, mitochondria and ER [39].

`CCCCCCCCCCCCCCCCCC(=O)Nc1ccc(-c2c3nc(c(-c4ccc[n+]([O-])c4)c4ccc([nH]4)c(-c4ccc[n+]([O-])c4)c4nc(c(-c5ccc[n+]([O-])c5)c5ccc2[nH]5)C=C4)C=C3)cc1` [TOPyP3-C17H35, 5-(4-Octadecanamidophenyl)-10,15,20-tris(1-oxido-3-pyridyl)porphyrin]: in data set [1], the Stokes shift was found to be 2 nm. Further, the “ΦFL (fluorescence quantum yield)” value in data set [1] (N2-purged, TPP as reference) is given as 0.047 ± 0.002. In data set [1] (excitation at Soret band), the “λFL Q(0,0)” value was found to be 648 nm and the “λFL Q(0,1)” value is recorded as 713 nm. Also, the “solubility (porphyrin not internalised, aggregates outside the cells)” value in data set [2] is listed as “low solubility”.

For the origin of these results see publication PMC12382614, “(Oxidopyridyl)Porphyrins of Different Lipophilicity: Photophysical Properties, ROS Production and Phototoxicity on Melanoma Cells Under CoCl2-Induced Hypoxia” (Antioxidants, 2025).
